The results in this text go back to patent US7910579B2, “Benzoxazole derivatives” (Tohoku University, priority 2006, dated 2011).

Data set [1] can be described thus: Evaluation of Brain-Penetration and Bone-Seeking Properties of the Labeled Compound in Mouse. The class given is in vivo. The note with it: for Brain radioactivity / blood radioactivity / bone radioactivity: male ICR mouse, intravenous; for bone radioactivity: thighbone; for Bone-seeking property (bone accumulation) / Washout from brain: mouse; for Bone-seeking property (bone accumulation): 2 to 60 minutes after intravenous injection; for Washout from brain: compared with [^18F] BF-227. On the procedure: Separated HPLC fractions containing [^18F] THK-702, [^18F] THK-761, [^18F] THK-763 or [^18F] BF-227 obtained by above mentioned synthesis of label were diluted with distilled water (about 20 mL), loaded thereon Sep-PaktC18 cartridge (produced by Waters Corporation). And the cartridge was washed by distilled water (5 to 10 mL), and labeled compound by EtOH (3 to 5 mL). A proper amount of 5% polysorbate 80-ethanol solution was added in the EtOH eluate and solvent was distilled away by a rotary evaporator with heating at 80° C. Obtained residue (mixture of the label compound and polysorbate 80) was dissolved in saline to prepare the labeled compound-containing saline. The radiochemical purity of chemical after the preparation was 95% or more.
Saline containing [^18F] BF-227, [^18F] THK-702, [^18F] THK-761 or [^18F] THK-763 was administered by intravenous injection through the tail vein of male ICR mouse (6 to 7 week), and brain-penetration and bone-seeking properties of each labeled compound was evaluated in the terms of seeking property of radioactivity in brain-tissue and bone tissue at 2, 30, 60 minutes after the injection.
The radiochemical purity of the saline containing the labeled compound used in the present invention was 95% or more, and the specific radioactivity was 18.5 to 148 GBq/μmol. 1.11 to 2.22 Mbq of the labeled compound per mouse was administrated. In evaluation of seeking property of radioactivity, the proportion of radioactivity in unit weight of evaluated tissue to all dosed radioactivity (% Injected Dose/g of tissue; % ID/g) was used as an index. Gamma counter (1480 WIZARD, produced by PerkinElmer, Inc.) was used in the measurement of radioactivity. Experimental procedures will be explained as follows. The labeled compound was administered by intravenous injection through the tail vein, 2, 30 and 60 minutes after the injection, cervical dislocation of the mouse was conducted under ether anesthesia, and blood was collected from heart rapidly. And then, whole brain (containing cerebellum and brain-stem) and thighbone of mouse were extracted. Moreover, radioactivity and the tissue weight of each sample were measured, the resulting data was used for calculating % ID/g.

Data set [2] relates to histidine-requiring Salmonella typhimurium TA100 and TA98 strains. Put plainly: Mutagenicity Test (reverse mutation test). The class given is cell-based. To be noted: for Relative activity (mutagenicity): irrespective of the absence or presence of S9mix; for Relative Activity in the presence of S9Mix / Relative Activity in the absence of S9Mix: reverse mutation test. On the procedure: In view of their use, it is desirable that the compounds of the invention have no mutagenicity or have little mutagenicity to a level causing no problem. For investigating the gene mutagenesis of the compounds of the invention, herein carried out was a reverse mutation test with histidine-requiring Salmonella typhimurium TA100 and TA98 strains. Two tests were carried out. One is a test for dose determination test; and the other is for mutagenicity.
The test methods and the mutagenicity of the compounds of the invention are mentioned below. In the dose determination test, six doses of 0.160, 0.800, 4.00, 20.0, 100 and 500 μg/plate (common ratio 5) were tried.
As a result of the dose determination test, when the mutagenicity of the test compound was admitted, then the actual test for mutagenicity was carried out, using the dose capable of giving an accurate dose-reaction curve. When no mutagenicity of the test compound was admitted in the dose determination test and when the growth inhibition of the test cells was admitted therein, then the dose to present the growth inhibition was taken as the maximum dose; and when the growth inhibition was not admitted, then a dose of 5000 μg/plate was taken as the maximum dose. With that, the actual test for mutagenicity was carried out on the level of 6 doses (common ratio 2).
First, a test compound was dissolved or suspended in DMSO, then diluted in order to prepare test compound liquids having a varying concentration.
100 μl of a test compound liquid or a negative control (DMSO) solution was put into a sterilized test tube. Then, for the case in the absence of a metabolic activation system (−S9mix), 500 μl of 0.1 mol/liter sodium-phosphate buffer (pH 7.4) was added to it; and for the case in the presence of a metabolic activation system (+S9mix), 500 μl of S9mix was added to it.
Next, 100 μl of the test strain suspension that had been cultivated with shaking at 37° C. for 8 hours was added to it, and preincubated in a shaking thermostat at 37° C. for 20 minutes. After shaken, 2 ml of top agar was added to it, and the contents were mixed.
Next, the mixture was poured onto a minimal glucose agar plate medium (plate) and spread uniformly thereon, then the top agar was solidified, and the plate was transferred into a thermostat and incubated at 37° C. for 48 hours.
Then, the number of the colonies grown through reverse mutation was counted.
For counting it, […]. After area correction and miss-counting correction, the number of the colonies was computed. When the colony analyzer could not be used owing to the deposition of the test compound or the cell growth inhibition, then the number of the colonies was counted with the naked eye.
In case where the number of the colonies through reverse mutation increased two times or more that of the negative control and where the dose dependency or the reproducibility of the increase was admitted, then the tested sample was decided as positive. When the sample was is decided as positive, then the relative activity that indicates the relative comparative value of the intensity of the mutagenicity of the test compound was obtained according to the following formula: Relative Activity={(number of colonies per plate having the concentration)−(number of colonies per negative control plate)}/the value of concentration (mg/plate).

In data set [3] the target is T1, Amyloid β protein 1-40 (Homo sapiens, UniProt P05067).
T1 construct: Amyloid β protein 1-40 (bought from Peptide Laboratory); purchased Peptide Laboratory
T1 sequence (P05067 672-711): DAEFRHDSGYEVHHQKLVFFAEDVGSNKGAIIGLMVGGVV
Put plainly: Fluorescence Congo Red Method. The class given is binding. The note with it: compound 10 μM, amyloid β protein 5 μM; for activity at 10 µM: 1 h. On the procedure: Next described is a screening method for the compounds of the invention. Some of the compounds of the invention could not be screened according to a Thioflavin T method, since their fluorescence wavelength overlaps with that of Thioflavin T. For such compounds, the following novel screening method was introduced. (1) Amyloid β protein 1-40 (bought from Peptide Laboratory) was dissolved in a phosphate buffer (pH 7.4) and left at 37° C. for 4 days. (2) 50 μl of Congo red dissolved in the buffer was applied to a 96-well microplate (final concentration, 0.1, 0.3, 1 μM). (3) 100 μl of amyloid β protein was added to it (final concentration 5 μM), and left as such for 30 minutes. (4) 100 μl of a test compound dissolved in the buffer was added to it (final concentration, 10 μM, and left as such for 60 minutes. (5) Using a fluorescence microplate reader (Spectra Max 190 by Molecular Device), the sample was analyzed at the optimum exciting wavelength and the test wavelength that had been previously determined. (6) The fluorescence intensity in the presence of the test compound, amyloid β protein and Congo red is represented by A; that in the presence of the test compound and Congo red is by B; that in the presence of the test compound and amyloid β protein is by C; and that in the presence of only the test compound is by D. The β structure recognition of the test compound is computed according to the following formula: β structure recognition (%) of test compound={(A−B)/(C−D)}×100. (7) It may be said that the test compound having a higher β structure recognition percentage may have higher binding specificity to amyloid β protein.

Like-named read-outs stand apart in the source and are kept apart here.

Consider `OCC(CF)Oc1ccc2nc(/C=C/c3cnc(N4CCOCC4)s3)oc2c1` (stereo not shown) [[^18F]THK-702], for which, in data set [1] (2 min), the Brain radioactivity worked out at 4.15 % ID/g, the blood radioactivity was 3.34 % ID/g and the bone radioactivity is given as 1.95 % ID/g. Besides, in data set [1] (30 min), the Brain radioactivity is listed as 0.53 % ID/g, the blood radioactivity came out at 1.06 % ID/g and the bone radioactivity is recorded as 0.92 % ID/g. Further, in data set [1] (60 min), the Brain radioactivity is 0.35 % ID/g, the blood radioactivity is 0.67 % ID/g and the bone radioactivity is listed as 1.16 % ID/g. In data set [1], the “Bone-seeking property (bone accumulation)” value (“Bone-seeking property” below) is listed as “have not found” and the Washout from brain entry is “excellent characteristics in washout from brain more than [^18F] BF-227”.
As for `CNc1ncc(/C=C/c2nc3ccc(OC(CO)CF)cc3o2)s1` (stereo not shown) [[^18F]THK-761], in data set [1] (2 min), the Brain radioactivity came to 1.67 % ID/g, the blood radioactivity turned out to be 3.16 % ID/g and the bone radioactivity amounted to 1.36 % ID/g. Further, in data set [1] (30 min), the Brain radioactivity is 0.22 % ID/g, the blood radioactivity worked out at 0.78 % ID/g and the bone radioactivity turned out to be 0.88 % ID/g. In data set [1] (60 min), the Brain radioactivity turned out to be 0.13 % ID/g, the blood radioactivity was determined as 0.34 % ID/g and the bone radioactivity stood at 0.95 % ID/g. Besides, in data set [1], the “Bone-seeking property” value is listed as “have not found” and the Washout from brain entry is “excellent characteristics in washout from brain more than [^18F] BF-227”.
On to `CC1(C)c2ccccc2N2CCC(=O)NC21/C=C/c1ccc(N2CCOCC2)cc1` (stereo not shown) [THK-336], for which, in data set [2], the “Relative activity (mutagenicity)” value is “minus”, the “Relative Activity in the presence of S9Mix” value is “minus” and the “Relative Activity in the absence of S9Mix” value is recorded as “minus”.
Consider `OCC(CF)Oc1ccc2nc(/C=C/c3cnc(N4CCSCC4)s3)oc2c1` (stereo not shown) [THK-767, (E)-6-[(1-fluoromethyl-2-hydroxy)ethoxy]-2-[2-(2-thiomorpholinothiazol-5-yl)ethenyl]benzoxazole], for which the activity at 10 µM in data set [3] (Congo red 0.1 μM, read-out: Binding Percentage of Compound in the presence of 0.1 μM CR) amounted to 60%; in data set [3] (Congo red 0.3 μM, read-out: Binding Percentage of Compound in the presence of 0.3 μM CR) it was 29.9%; in data set [3] (Congo red 1 μM, read-out: Binding Percentage of Compound in the presence of 1 μM CR) it was 15.9%.
As for `CN(C)c1ncc(/C=C/c2nc3ccc(OC(CO)CF)cc3o2)s1` (stereo not shown) [[^18F]THK-763], in data set [1] (2 min), the Brain radioactivity was found to be 4.64 % ID/g, the blood radioactivity is reported as 3.65 % ID/g and the bone radioactivity was found to be 1.84 % ID/g. Besides, in data set [1] (30 min), the Brain radioactivity turned out to be 0.53 % ID/g, the blood radioactivity came out at 1.19 % ID/g and the bone radioactivity was determined as 0.88 % ID/g. In addition, in data set [1] (60 min), the Brain radioactivity is 0.28 % ID/g, the blood radioactivity is on record as 0.64 % ID/g and the bone radioactivity is 1.38 % ID/g. Also, in data set [1], the “Bone-seeking property” value is “have not found” and the Washout from brain entry is “excellent characteristics in washout from brain more than [^18F] BF-227”.
`CN(C)c1ncc(C=Cc2nc3ccc(OCCF)cc3o2)s1` [[^18F]BF-227, 2-[2-(2-dimethylaminothiazol-5-yl)ethenyl]-6-(2-fluoroethoxy)benzoxazol, reference compound]: the Brain radioactivity came to 6.05 % ID/g in data set [1] (2 min), 1.91 % ID/g in data set [1] (30 min) and 1.67 % ID/g in data set [1] (60 min). For the same molecule, the blood radioactivity in data set [1] (2 min) stood at 2.93 % ID/g; in data set [1] (30 min), 2.14 % ID/g; in data set [1] (60 min), 2.09 % ID/g. The results for the bone radioactivity in data set [1] (2 min), in data set [1] (30 min) and in data set [1] (60 min) were 1.59 % ID/g, 4.38 % ID/g and 7.04 % ID/g, respectively. In data set [1], the “Bone-seeking property” value is recorded as “significant time-dependent bone-seeking property after the injection has been found”.
Consider `Cc1ccc2c(c1)sc(-c1ccc(N(C)C)cc1)[n+]2C.[Cl-]` [Thioflavin T, reference compound], for which the “Binding Percentage of Compound in the presence of 0.1 μM CR” value in data set [3] (Congo red 0.1 μM) turned out to be 49.4%. Further, in data set [3] (Congo red 0.3 μM), the “Binding Percentage of Compound in the presence of 0.3 μM CR” value is reported as 22.3%. Moreover, the “Binding Percentage of Compound in the presence of 1 μM CR” value in data set [3] (Congo red 1 μM) was determined as 9.3%.
Regarding `N#CC(C#N)=Cc1ncc(/C=C/c2nc3ccc(OCC(CO)CF)cc3o2)s1` (stereo not shown) [THK-683, (E)-2-[2-(2,2-dicyano-ethenylthiazol-5-yl)ethenyl]-6-[(2-fluoromethyl-3-hydoxy)propoxy]benzoxazole], in data set [2], the “Relative activity (mutagenicity)” value was “minus”, the “Relative Activity in the presence of S9Mix” value is on record as “minus” and the “Relative Activity in the absence of S9Mix” value is reported as “minus”.
